Data set [1] deals with sickle cell disease leg ulcers. Particulars: published randomised trials; RGD peptide topical, arginine butyrate intravenous; cited from earlier work.
Data set [2] concerns chronic leg ulcers in patients with sickle cell anaemia. Particulars: concomitant use in 9 of 18 trial patients; p=0.96.
Experimental: The primary endpoints were safety and tolerability, with secondary endpoints of pharmacokinetics, blood flow, and wound healing. Pain relief was analysed post hoc. Endpoints were analysed over time for the whole study population and according to dose level.
Hydroxycarbamide and chronic transfusions were allowed. Patients with acute infections were excluded.
Originally, it was planned to enroll four cohorts with three patients in each, to give a total of 12 participants. […] The first two doses of cream were administered as inpatients, and the remaining six doses in the outpatient day hospital at the NIH Clinical Center. […] All three patients in each cohort were assessed for the 32-day duration of the study to ensure no dose-limiting toxicities before patients were enrolled into the next cohort. […]
The study ulcer was selected by the wound care nurse and principal investigator on the basis of ulcer duration, size, and accessibility for digital imaging. […] Ulcers were measured manually with a disposable ruler (longest length and widest width) at each encounter and by digital photography three times: before the first application of cream (baseline), and after 2 weeks and after 4 weeks of treatment. […] The ulcer area was calculated by converting the number of pixels representing the ulcer to cm^2 using a calibrated square (35.48 mm×35.62 mm×6.52 mm) that was placed near the ulcer for reference. […]
For data set [3] the following is noted: trial patients; after ingestion of hydroxycarbamide vs after sodium nitrite application.
Experimental: Plasma and whole blood nitrite and nitrate concentrations were collected at the following time points: pre-dose; immediately after application; 5, 10, 15, 20, 30, 45, 60, and 90 min post-dose; 2, 3, 6, 8, 12, 24, and 48 h post-dose; then weekly and at the end of the study. All processing was done at the bedside. Plasma and whole blood nitrite and nitrate were measured with a gas-phase chemiluminescence nitric oxide analyzer, as previously reported (Gladwin et al., Proc Natl Acad Sci USA.; 97: 11482-11487, 2000).
Therefore, we did a subsequent pharmacokinetic analysis was carried out with respect to the time and dose of hydroxycarbamide intake instead of nitrite cream administration, using a population approach. A two-compartment model was fitted with first-order absorption and elimination to whole blood nitrite concentrations using first-order conditional estimation method by Phoenix NLME 1.2 (Certara USA Inc., St Louis, Mo., USA), and an exponential model was used to describe the inter-individual variability and a mixed-ratio model to describe the intra-individual variability (FIG. 7C).

For Arg-Gly-Asp (RGD) peptide, the Wound closure entry in data set [1] is “statistically significant increases in wound closure”. Consider `NC(=O)NO` [hydroxycarbamide], for which the “Association with ulcer healing” value in data set [2] was “not associated with ulcer healing”. Further, the “Whole blood nitrite concentrations” value in data set [3] is given as “increased”. Consider arginine butyrate, for which, in data set [1], the Wound closure result was “statistically significant increases in wound closure”.

The values above are taken from patent US10272039B2 (The United States of America, as represented by the …, priority 2014, dated 2019).
